Data taken from patent US20110092589A1, “Treatment of Inflammatory Conditions and Diseases with Metal-Thiols” (THE CHARLOTTE-MECKLENBURG HOSPOTAL AUTHORITY, priority 2008, published 2011).

What was measured:
[1] = tested on: Male swiss white mice; test: Survival in inflammation model of mice (cecum ligated and perforated); type: in vivo; conditions: for % Survival 1 dose: tail vein once daily for three days; for % Survival 1 dose / % Survival 2 doses: monitored 8 days; for % Survival 2 doses: tail vein twice daily for three days; for % Survived / Survived/Total: Table 2, treatment i.v. five hours after initiation of inflammation, BisEDT 20 ug/kg
Description: (§1) In the following examples, the protective effects of BisEDT was studied in an inflammation model of mice. Male swiss white mice weighing between 30-35 grams were used. The cecum of the mice were ligated and perforated to cause inflammation. BisEDT was prepared in a molar concentration of 1:2 by adding 4.9 pi 10.19 M EDT to 1 ml of 50 mM Bi(NO3)3 in propylene glycol.
A total of sixty mice, 10 in each group, were used in the survival phase of experimentation. Five hours after CLP, BisEDT was administered intravenously in five groups via the tail vein, once a day for three days, at doses of 0.2, 2, 20, 200 and 2000 ug Bi^3+/kg, while the last group received vehicle only. The survival time for each group of mice was recorded to determine an optimal dosage of BisEDT. The study was repeated using limited doses to confirm the results, and to determine if more frequent dosing would increase or prolong survival. This group was injected twice daily with the same doses of BisEDT, with one control group.
(§2) A total of eight groups each containing 10-20 mice in each group were used for the next phase of the study. Five hours after initiation of inflammation, 20 ug/kg BisEDT was administered intravenously with the combination of different biologics indicated in Table 2 with one group that received vehicle only (control). The survival time for each group was recorded. In another eight groups of mice 10 in each group was injected similarly with the same combination of treatment and control and several measures of immune response were assessed such as measurement of pro- and anti-inflammatory cytokines during BisEDT treatment of these mice. […] From 60-70% of mice survived when treated with one or two doses of 20 μg/kg BisEDT (p<0.05), whereas doses 10-fold higher or lower protected only 30-40% of mice (Table 1). […] However, only free TNFα, not total TNFα or free IL-10, correlated strongly with survival (r=−0.92). IL-10 is an anti-inflammatory cytokine and under certain circumstances it can cause immunosuppression. In order to test whether IL-10 plays a role in the model, monoclonal antibodies to IL-10 (that neutralizes IL-10) were used. […] Additionally, IL10 or IL-10+BisEDT provided no protection for the mice. A general damping down of cytokine production was observed, yet it was the reduction in free TNFα that correlated most closely with prevention. BisEDT appears to preserve the normal cellular response to activating stimuli and to protect mice from immune suppression or overwhelming immune reaction.
After inflammation, BisEDT was introduced into the tail vein once or twice daily for three days. Mice were monitored for 8 days to determine survival. *p<0.05, compared to control.

[2] = tested on: TNFα; test: Serum TNFα (total and free) in mouse inflammation model; type: in vivo, mice
Description: as §1, §2

[3] = tested on: IL-10; test: Serum free IL-10 in mouse inflammation model; type: in vivo, mice; conditions: Table 2; treatment i.v. five hours after initiation of inflammation; BisEDT 20 ug/kg
Description: as §1
A total of eight groups each containing 10-20 mice in each group were used for the next phase of the study. Five hours after initiation of inflammation, 20 ug/kg BisEDT was administered intravenously with the combination of different biologics indicated in Table 2 with one group that received vehicle only (control). The survival time for each group was recorded. In another eight groups of mice 10 in each group was injected similarly with the same combination of treatment and control and several measures of immune response were assessed such as measurement of pro- and anti-inflammatory cytokines during BisEDT treatment of these mice. […] From 60-70% of mice survived when treated with one or two doses of 20 μg/kg BisEDT (p<0.05), whereas doses 10-fold higher or lower protected only 30-40% of mice (Table 1). […] However, only free TNFα, not total TNFα or free IL-10, correlated strongly with survival (r=−0.92). IL-10 is an anti-inflammatory cytokine and under certain circumstances it can cause immunosuppression. […]

[4] = 20 μg Bi3+/kg BW, *p<0.05 vs control
[5] = Table 2, treatment i.v. five hours after initiation of inflammation, BisEDT 20 ug/kg

Bismuth-ethanedithiol [BisEDT]
% Survival 1 dose ([1]; 2 μg Bi3+/kg BW): 40% | % Survival 2 doses ([1]; 2 μg Bi3+/kg BW): 40% | % Survival 1 dose [1, 4]: 60* % | % Survival 2 doses [1, 4]: 70* % | % Survival 1 dose ([1]; 200 μg Bi3+/kg BW): 40% | % Survival 2 doses ([1]; 200 μg Bi3+/kg BW): 30% | % Survived [1]: 60% | Survived/Total [1]: 6/10 | % of mice protected ([1]; doses 10-fold higher or lower than 20 μg/kg): 30-40% | % of mice survived ([1]; one or two doses of 20 μg/kg BisEDT (p<0.05)): 60-70% | changes in cytokine levels (IL1β, TNFα, IL-10, TGFβ), in words ([2]; BisEDT-treated mice, not nearly to the same extent as in the untreated group): significant changes in TNFα only | sTNFα (free fraction), serum [2, 5]: 100 pg/mL | tTNFα (total fraction), serum [2, 5]: 330 ng/mL | sIL-10 (free fraction), serum [3]: 595 pg/mL

IL-10: IL-10 is an anti-inflammatory cytokine
% Survived [1]: 0% | Survived/Total [1]: 0/10 | protection of mice (in words) ([1]; mouse inflammation model): no protection
